B1: Wnt7a ligand: known activator of symmetric satellite cell divisions (protein, UniProt O00755 32-349, looked up)
Protein Wnt-7a: LGASIICNKIPGLAPRQRAICQSRPDAIIVIGEGSQMGLDECQFQFRNGRWNCSALGERTVFGKELKVGSREAAFTYAIIAAGVAHAITAACTQGNLSDCGCDKEKQGQYHRDEGWKWGGCSADIRYGIGFAKVFVDAREIKQNARTLMNLHNNEAGRKILEENMKLECKCHGVSGSCTTKTCWTTLPQFRELGYVLKDKYNEAVHVEPVRASRNKRPTFLKIKKPLSYRKPMDTDLVYIEKSPNYCEEDPVTGSVGTQGRACNKTAPQASGCDLMCCGRGYNTHQYARVWQCNCKFHWCCYVKCNTCSERTEMYTCK

Columns and labels:
EGFR signaling = type: cell-based
satellite stem cells = experiment: EDL myofiber culture, satellite stem cell divisions (Myf5-Cre/R26R-eYFP, wild type); type: cell-based, mouse; conditions: 42 h culture, Lapatinib 1 μM vs DMSO vehicle
Procedure: EGFR Signaling Regulates Asymmetric Satellite Stem Cell Divisions. To assess the role of EGFR in asymmetric division, the inventors cultured satellite cells in myofibers isolated from Extensor digitorum longus (EDL) muscles from Myf5-Cre/R26R-eYFP mice and performed both loss-of-function and gain-of-function experiments. Isolated myofibers were first cultured for 42 h with and without treatment with the Lapatinib, a specific inhibitor of EGFR signaling.
EDL fiber Culture and siRNA Transfection. Myofiber culture was performed as described in Dumont, N. A., et al. “Dystrophin expression in muscle stem cells regulates their polarity and asymmetric division.” Nat. Med. (2015) 21:1455-63, which is incorporated herein by reference. Briefly, EDL were carefully dissected and incubated in DMEM with 2% L-glutamine, 4.5% glucose, and 110 mg/mL sodium pyruvate (Gibco) containing 0.2% collagenase I (Sigma) for 45 min. Myofibers were isolated using gentle trituration with a glass pipet. Myofibers were cultured for 36, 42, or 72 h in DMEM containing 20% FBS (Wisent), 1% chick embryo extract (MP Biomedicals), and 2.5 ng/ml bFGF (Cedarlane). For pharmacological inhibition, Lapatinib ditosylate (1 mM in DMSO; Santa
Cruz Biotechnology), PTP1b inhibitor CAS 765317-72-4 (10 mM in DMSO; Santa Cruz Biotechnologies) was added to the culture medium for a final concentration of 1 μM or 10 μM, respectively; equal dilution of DMSO was used as vehicle control.
Transfection of satellite cells on myofibers was performed using lipofectamine RNAimax (Life Technologies) and validated Smartpool siRNAs for EGFR, Aurka, or scramble (SCR) (Dharmacon). Two transfections were performed at 4 h and 16 h after isolation of the myofibers as described in Le Grand, et al. (2009) Wnt7a activates the planar cell polarity pathway to drive the symmetric expansion of satellite stem cells. Cell Stem Cell 4, pp 535-547, which is incorporated herein by reference. Knockdown efficiencies of the siRNA were validated in myoblasts by western blot and qRT-PCR.

satellite cell divisions = experiment: FDB myofiber screening method validation (YFP(-) divisions); type: cell-based, mouse; conditions: control 62% (Wnt7a experiment), control 45% (EGF / PTP1b experiment)
From the text: EGFR pathway activators may be identified in a method of screening potential activators. The method includes visualizing isolated, cultured, and stained Flexor Digitorum Brevis (FDB) myofibers from Myf5-Cre/ROSA26-YFP mice in a plurality of Z-stack planes to create a projection image. Muscle satellite cells are identified in the projection image based on Pax7 expression. Of the identified muscle satellite cells: (i) satellite stem cells are identified based on the absence of YFP expression, and (ii) committed satellite progenitor cells are identified based on yellow fluorescence protein (YFP) expression. A potential EGFR pathway activator is administered to the FDB myofibers. The number of symmetric divisions of satellite myogenic cells, identified by the production of two YFP(+) satellite cells, are counted; the number of symmetric satellite stem cell divisions, identified by the production of two YFP(−) satellite cells, are counted; and the number of asymmetric satellite cell divisions, identified by the production of one YFP(+) and one YFP(−) satellite cell, are counted. The potential EGFR pathway activator is identified as an EGFR pathway activator when the percent of YFP(−) divisions that are asymmetric divisions is greater than the corresponding percent in a control sample. The expression “YFP(−) divisions” refers to all cell divisions where one of the daughter cells is YFP(−).
Identification of EGFR pathway activators. Flexor Digitorum brevis (FDB) fibers were isolated from Myf5-Cre/Rosa-YFP mice and digested in 0.25% Collagenase Type I (Sigma) in DMEM (Dulbecco's modified Eagle's medium; high glucose, L-glutamine with 110 mg/ml sodium pyruvate) for 2.5-3 h. Myofibers were dissociated using gentle trituration with a glass pipette.
Myofibers are cultured at 37° C., 5% CO2 for 42 h in myofiber culture media (DMEM supplemented with 20% FBS(Wisent), 1% Chicken Embryo extract (MP Biomediacals), 1% Penicillin/Streptomycin (Cederlane) and 2.5 ng/ml basic Fibroblast Growth Factor (Cedarlane).
Myofibers are first fixed in 2% Paraformaldehyde (PFA) for 5 mins. Myofibers are blocked for 1-2 h in 1% Bovine Serum Albumin, 0.5% TritonX-100, 5% HS and 0.01% Sodium Azide. Primary antibodies are applied in blocking solution for 2 h at room temperature or at 4° C. overnight. Myofibers are washed with PBS and stained with appropriate fluorescently labeled secondary antibodies (Alexa Fluor 488, 546) for 1 hat room temperature. Following washing with PBS, fiber nuclei are stained with DAPI for 5 min. The following antibodies are used: mouse anti-Pax7 (Developmental Studies Hybridoma Bank (DSHB)), chicken anti-GFP (cat. no. ab13970, Abcam).
Satellite cells are focused based on Channel 3 (DAPI) staining. Autofocus is performed by sampling seven (7) z-stacks taken at […] intervals for an extended depth of field of 85.3 μm.
Z-stack images were consolidated to create a projection image with all satellite cells in focus. Image acquisition of a projection image for analysis was created from seven (7) Z-stack images taken at 6.5 μm intervals, for an extended depth of field of 45.5 μm at 200 (Objective 20×) magnification. The projection direction was centered, where the median stacks fall within the center of each myofiber. […]
Potential satellite cells were first identified based on Channel 1 (Pax7) signal, and separated from other satellite cells based on intensity of fluorescence between cells. […]

Row | Molecule | EGFR signaling at the concentration used in the screen (EGFR signaling) | decrease in the rate of asymmetric divisions (satellite stem cells; FIG. 1A) [%] | increase in the number of satellite stem cells (satellite stem cells; FIG. 1B) [%] | percentage of YFP(-) divisions that were symmetric divisions (satellite cell divisions) [%]
1 | CS(=O)(=O)CCNCc1ccc(-c2ccc3ncnc(Nc4ccc(OCc5cccc(F)c5)c(Cl)c4)c3c2)o1 [Lapatinib, reference compound] | completely abolishes EGFR signaling | 83 | 71 | –
2 | B1 | – | – | – | 78

— patent US20230114123A1, “METHOD OF STIMULATING ASYMMETRIC DIVISION OF SATELLITE STEM CELLS” (Ottawa Hospital Research Institute, priority 2017, published 2023)
